Experimental data as given in patent publication US7259167B2, “Antimalarial and antiproliferative pharmacophore models, novel tryptanthrin compounds having increased solubility, and methods of making and using thereof” (United States of America as Represented by the Secretary of …, priority 2002, dated 2007).

How the values were obtained:
P. berghei P-line = test: Bioavailability and efficacy of DN49 in infected mice; type: in vivo
Protocol: On day 0, each mouse in groups 1 to 7 was inoculated intraperitoneally with 0.1 ml, 1.0×10^6 P. berghei P-line infected red blood cell from donor mice diluted in PBS.
DN49 was a yellow powder and dissolved completely in hot DMSO. The hot DMSO solution was then diluted 1:10 in PBS.
On days 3 to 5, 0.2 ml of the three dosages at 2.5, 1.25, 0.625 mg/kg of DN49 were administered intravenously by a 29G, 0.5-inch needle (Groups 2 to 4). In addition, 0.2 ml of the three dosages at 30, 15, 7.5 mg/kg of DN49 were administered orally by a 20G, 2.5-inch needle (Groups 5 to 7). Drug administrations were performed once daily for 3 days. Group 1 served as vehicle control, and PBS was administered orally.

[1] = Solubility of DN49 in various solvents; type: physicochemical; settings: for solubility: organic solvent or mixture
Protocol: The solubility of DN49 (WR288510) was tested in various solvents to determine the properties encouraging solubility. […] An N—H group on an aromatic compound might be forming a complex with tryptanthrin. […] (200 mM) concentration in a solvent. The temperature is a close approximation to the temperature required to achieve solubility. Color is the color of the solution; DN49 is a yellow compound and colors other than yellow indicate close interaction between solvent and solute. Precipitate is whether or not DN49 precipitated out upon cooling to room temperature.

[2] = Hemin binding activity assay by 1H NMR (pseudocontact shifts); settings: DMSO-d6
Protocol: (§1) As provided in Example 5, the hemin binding affinity for a series of tryptanthrin compounds with functional groups at the 8-position with different electron donating/withdrawing characteristics corresponding with the pharmacophore model of the present invention was determined by ^1H NMR. The binding interaction was measured as a function of the induced up-field shift in the chemical shift as a function of increasing hemin concentration. ^1H spectra of selected compounds each analog with an increasing concentration of hemin were collected and analyzed for the effect of the pseudocontact shifts.
It is well known that bio-molecules containing the paramagnetic species Fe^+3 induce via pseudocontact effect (a thru-space paramagnetic interaction, similar to the thru-space diopolar interaction or NOE) up-field chemical shifts of the ^1H, ^13C, ^15N atoms of bound ligands. See Serge Moreau et al. (1985) Biochemica et. Biophysica Acta 107-116; Alam, S. L., et al. (1998) J. Biomol. NMR 11:119-133; and Kalodimos, C. G., et al. (2000) J. Inorg. Biochem. 79:371-380, which are herein incorporated by reference. […] See Crowley, P. B., et al. (2001) J. Am. Chem. Soc. 123:10444-10453, which is herein incorporated by reference. Consequently, the closer a particular proton on the ligand is to the Fe^+3 atom, the greater the induced Δδ.
as §1, with “The” for “As provided in Example 5, the”, “using” for “by”, “of” for “of selected compounds”
To each sample, a 100 or 200 μl aliquot of a known concentration of hemin dissolved in 1.0 ml of DMSO-d6 was added. The concentrations of the tryptanthrin compounds compounds ranged from 3.0 to 8.0 mg per 500 μl of DMSO. A corresponding solution of hemin in DMSO was prepared to maintain a molar ratio of tryptanthrin compounds to hemin in the range of 1:1.0 to 1:1.5.
All ^1H NMR data was collected using a Bruker Avance-600 spectrometer using methods known in the art. See e.g. Wang, J., et al. (2001) J. Am. Chem. Soc. 123:8080-8088, which is herein incorporated by reference. The proton spectra were collected at 300 K, using a spectral width of 9090.9 Hz. All spectra were acquired with 64k data points in F2. All chemical shifts were referenced internally to TMS (0.00 ppm). The spectra were processed using XWINNMR (Bruker BioSpin Corporation, Billerica, Mass.) on a Silicon Graphics O2 workstation (Silicon Graphics, Mountain View, Calif.). Each data set was multiplied by a Gaussain window function with 0.3 Hz line broadening in each dimension before transformation.

O=C1c2ccccc2-n2c1nc1ncccc1c2=O [DN49]
extension of life of mice (P. berghei P-line; 2.5 mg/kg intravenously once daily at study days 3 to 5): 2 days | extension of life of mice (P. berghei P-line; 30 mg/kg orally once daily at study days 3 to 5): 2 days | mean parasitemia on day 6 (P. berghei P-line; Group 2, 2.5 mg/kg intravenously once daily days 3 to 5): 54.75% | mean parasitemia on day 6 (P. berghei P-line; Group 3, 1.25 mg/kg intravenously once daily days 3 to 5): 55.75% | mean parasitemia on day 6 (P. berghei P-line; Group 4, 0.625 mg/kg intravenously once daily days 3 to 5): 61.18% | mean parasitemia on day 6 (P. berghei P-line; Group 5, 30 mg/kg orally once daily days 3 to 5): 56.11% | mean parasitemia on day 6 (P. berghei P-line; Group 6, 15 mg/kg orally once daily days 3 to 5): 54.26% | mean parasitemia on day 6 (P. berghei P-line; Group 7, 7.5 mg/kg orally once daily days 3 to 5): 64.23% | acute toxicity or other deaths prior to day 6 (P. berghei P-line; IV 0.625-2.5 mg/kg, oral 7.5-30 mg/kg): no acute toxicity | Toxic effects (P. berghei P-line; at the dosages given (up to 2.5 mg/kg IV, 30 mg/kg oral)): not observed | activity at lower dosages (P. berghei P-line; dosages below 2.5 mg/kg intravenously or 30 mg/kg orally): no significant activity | Precipitate upon cooling to room temperature ([1]; 1,4-dioxane): yes | solubility ([1]; 1,4-dioxane, 80 °C): > 25 mg/mL | solubility ([1]; 3,4-dihydro-2H-pyran): < 25 mg/mL | Precipitate upon cooling to room temperature ([1]; Aniline): No | solubility ([1]; Aniline, 18 °C): > 25 mg/mL | Precipitate upon cooling to room temperature ([1]; Benzoic acid): Yes | solubility ([1]; Benzoic acid, 50 °C): > 25 mg/mL | solubility ([1]; Benzyl alcohol, 30 °C, Benzyly alcohol): > 25 mg/mL | Precipitate upon cooling to room temperature ([1]; Benzyly alcohol): No | solubility ([1]; Diethylamine): < 25 mg/mL | solubility ([1]; Dimethylsulfoxide, Dimethylsufoxide): < 25 mg/mL | Precipitate upon cooling to room temperature ([1]; Indole): Solidified | solubility ([1]; Indole, 53 °C): > 25 mg/mL | Precipitate upon cooling to room temperature ([1]; Isoquinoline): Solidified | solubility ([1]; Isoquinoline): > 25 mg/mL | Precipitate upon cooling to room temperature ([1]; N-methylbenzylamine): No | solubility ([1]; N-methylbenzylamine): > 25 mg/mL | solubility ([1]; N-methylpiperidine): < 25 mg/mL | Precipitate upon cooling to room temperature ([1]; Nitrobenzene): Yes | solubility ([1]; Nitrobenzene): > 25 mg/mL | Precipitate upon cooling to room temperature ([1]; Phenol): solidified | solubility ([1]; Phenol): > 25 mg/mL | Precipitate upon cooling to room temperature ([1]; Piperidine): No | solubility ([1]; Piperidine): > 25 mg/mL | Precipitate upon cooling to room temperature ([1]; Pyridine): Yes | solubility ([1]; Pyridine): > 25 mg/mL | Precipitate upon cooling to room temperature ([1]; Pyrrole): No | solubility ([1]; Pyrrole): > 25 mg/mL | Precipitate upon cooling to room temperature ([1]; Pyrrolidine): No | solubility ([1]; Pyrrolidine): > 25 mg/mL | solubility ([1]; Tetrahydrofuran): < 25 mg/mL | solubility ([1]; Toluene): < 25 mg/mL | solubility ([1]; Triethylamine): < 25 mg/mL | Maximum induced Δδ ([2]; hemin induced pseudocontact chemical shift): 0.558 ppm | Concentration dependence Δδ ([2]; slope of Δδ v. hemin concentration): 0.09778 ppm/mole %
